This note sets out measurements from patent publication US11304946B2, “2-hetarylpyrimidine-4-carboxamides as aryl hydrocarbon receptor antagonists” (Bayer Aktiengesellschaft, priority 2017, dated 2022).

In one experiment the target is T1, Human AhR (Homo sapiens, UniProt P35869).
T1 construct: host or cells: U87 glioblastoma cells, stably transfected with DRE-driven firefly luciferase and constitutive renilla reporter constructs
T1 sequence (P35869 11-848): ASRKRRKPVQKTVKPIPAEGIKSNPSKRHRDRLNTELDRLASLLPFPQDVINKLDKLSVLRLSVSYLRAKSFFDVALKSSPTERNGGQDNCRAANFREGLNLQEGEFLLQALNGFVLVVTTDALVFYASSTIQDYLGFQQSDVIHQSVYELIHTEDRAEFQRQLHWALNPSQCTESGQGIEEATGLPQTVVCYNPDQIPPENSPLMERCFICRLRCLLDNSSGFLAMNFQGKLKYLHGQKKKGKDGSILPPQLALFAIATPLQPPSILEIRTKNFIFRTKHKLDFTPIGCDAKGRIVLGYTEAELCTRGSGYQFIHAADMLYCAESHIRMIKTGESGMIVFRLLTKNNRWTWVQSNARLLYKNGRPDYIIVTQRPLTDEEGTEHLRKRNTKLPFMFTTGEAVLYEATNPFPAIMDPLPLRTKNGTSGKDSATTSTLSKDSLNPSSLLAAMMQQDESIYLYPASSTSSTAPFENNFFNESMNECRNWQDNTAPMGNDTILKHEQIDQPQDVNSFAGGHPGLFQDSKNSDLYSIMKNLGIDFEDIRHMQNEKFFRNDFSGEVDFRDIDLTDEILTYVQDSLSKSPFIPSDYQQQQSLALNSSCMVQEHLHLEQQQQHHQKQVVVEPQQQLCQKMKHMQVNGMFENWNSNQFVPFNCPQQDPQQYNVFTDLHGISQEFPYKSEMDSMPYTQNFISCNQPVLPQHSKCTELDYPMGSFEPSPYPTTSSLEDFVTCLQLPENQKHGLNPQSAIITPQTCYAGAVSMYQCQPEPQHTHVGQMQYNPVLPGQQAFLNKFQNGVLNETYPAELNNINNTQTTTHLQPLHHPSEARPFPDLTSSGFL
Description: Transactivation assay in human cell line (in vitro assay 1: antagonism). Format: cell-based. Conditions: U87 glioblastoma cells, AHR inducible (DRE) firefly luciferase reporter, 150 μM kynurenic acid, 20 hours. The method in brief: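 U87 glioblastoma cells with endogenous AHR, stably carrying DRE-driven firefly luciferase and constitutive Renilla reporters, prestimulated with kynurenic acid before compound. Dual luciferase read-out; Renilla signal used to flag toxicity.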

A further experiment concerns the target T2, Mouse AhR (Mus musculus, UniProt P30561).
T2 sequence (P30561 1-848): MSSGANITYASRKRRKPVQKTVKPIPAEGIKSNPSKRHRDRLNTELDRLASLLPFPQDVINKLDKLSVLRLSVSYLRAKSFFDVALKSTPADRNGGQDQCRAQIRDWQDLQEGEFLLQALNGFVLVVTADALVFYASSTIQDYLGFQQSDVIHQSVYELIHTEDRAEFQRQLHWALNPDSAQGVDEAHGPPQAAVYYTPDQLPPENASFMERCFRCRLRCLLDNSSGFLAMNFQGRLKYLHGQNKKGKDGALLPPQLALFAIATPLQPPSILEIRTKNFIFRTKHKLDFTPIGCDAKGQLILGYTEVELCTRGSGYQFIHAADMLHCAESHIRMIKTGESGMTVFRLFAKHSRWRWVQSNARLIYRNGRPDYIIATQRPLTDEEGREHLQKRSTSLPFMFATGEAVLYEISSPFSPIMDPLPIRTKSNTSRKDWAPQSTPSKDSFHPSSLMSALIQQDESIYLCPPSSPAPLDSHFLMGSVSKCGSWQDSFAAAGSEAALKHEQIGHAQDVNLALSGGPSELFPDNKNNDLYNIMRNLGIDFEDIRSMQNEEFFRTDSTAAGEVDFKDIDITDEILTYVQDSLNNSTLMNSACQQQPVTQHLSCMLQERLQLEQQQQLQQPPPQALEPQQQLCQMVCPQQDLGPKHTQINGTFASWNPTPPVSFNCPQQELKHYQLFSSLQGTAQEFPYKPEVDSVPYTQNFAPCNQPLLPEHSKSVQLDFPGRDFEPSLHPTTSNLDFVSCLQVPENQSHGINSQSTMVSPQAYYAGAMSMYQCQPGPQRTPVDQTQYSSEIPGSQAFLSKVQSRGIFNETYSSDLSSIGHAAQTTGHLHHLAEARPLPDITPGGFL
Description: Transactivation assay in mouse cell line (in vitro assay 2: antagonism). The experiment is classed as cell-based. Particulars: Hepa 1c1c7 cells, AHR inducible (DRE) firefly luciferase reporter, 200 μM kynurenic acid, 20 hours. Here is the method:
Transactivation Assay in Mouse Cell Line (In Vitro Assay 2)
Transactivation assay was carried out in Hepa 1c1c7 cells (ATCC #CRL-2026) endogenously expressing AHR. In addition the cells were stably transfected with an AHR inducible firefly luciferase reporter gene construct that carried AHR-binding sites (DRE) in its promoter. Kynurenic acid is an endogenous AHR activating ligand and was used to prestimulate test cells prior to testing the antagonistic properties of compounds.
In Vitro Assay 2: Antagonism in Mouse Cell Line
Firefly luciferase activity was determined by the SteadyGlo Luciferase Assay System (Promega, #E2550).
In general terms: In a reporter assay the amount or activity of a reporter protein is the signal.

A word on the IC50: it is the midpoint of a concentration-inhibition curve. Higher therefore signals lower potency. With `Cc1ccsc1-c1nc(C(=O)N[C@@H](C)CO)cc(-c2ccc(Cl)cc2)n1` [Example 73, 6-(4-chlorophenyl)-N-[(2S)-1-hydroxypropan-2-yl]-2-(3-methylthiophen-2-yl)pyrimidine-4-carboxamide], the IC50 against Human AhR is 16.3 nM; against Mouse AhR, 28.8 nM.

As to `Cn1cc(-c2nc(C(=O)NC(CO)C3CCC3)cc(-c3ccc(OC(F)(F)F)cc3)n2)cn1` (centres unmarked) [Example 94, N-(1-cyclobutyl-2-hydroxyethyl)-2-(1-methyl-1H-pyrazol-4-yl)-6-[4-(trifluoromethoxy)phenyl]pyrimidine-4-carboxamide], the IC50 was determined as 5.44 nM at Human AhR and 24.3 nM on Mouse AhR.

`Cn1cc(-c2nc(C(=O)N[C@H]3CCC[C@@H]3O)cc(-c3ccc(OC(F)(F)F)cc3)n2)cn1` (stereo in doubt) [Example 87, N-[(trans)-2-hydroxycyclopentyl]-2-(1-methyl-1H-pyrazol-4-yl)-6-[4-(trifluoromethoxy)phenyl]pyrimidine-4-carboxamide]: the IC50 was 5.33 nM on Human AhR and 3.93 nM on Mouse AhR.

`C[C@@H](CO)NC(=O)c1cc(-c2ccc(OC(F)(F)F)cc2)nc(-c2cccnc2)n1` [Example 1, N-[(2S)-1-hydroxypropan-2-yl]-2-(pyridin-3-yl)-6-[4-(trifluoromethoxy)phenyl]pyrimidine-4-carboxamide]: the IC50 against Human AhR came to 0.885 nM; at Mouse AhR, 2.03 nM.

In the case of `Cn1cc(-c2nc(C(=O)NCC(C)(C)O)cc(-c3ccc(OC(F)(F)F)cc3)n2)cn1` [Example 6, N-(2-hydroxy-2-methylpropyl)-2-(1-methyl-1H-pyrazol-4-yl)-6-[4-(trifluoromethoxy)phenyl]pyrimidine-4-carboxamide], the IC50 was determined as 7.53 nM against Human AhR and 15 nM on Mouse AhR.

Take `Cn1cc(-c2nc(C(=O)N[C@H](CO)CF)cc(-c3ccc(OC(F)(F)F)cc3)n2)cn1` [Example 95, N-[(2R)-1-fluoro-3-hydroxypropan-2-yl]-2-(1-methyl-1H-pyrazol-4-yl)-6-[4-(trifluoromethoxy)phenyl]pyrimidine-4-carboxamide]: the half-maximal inhibitory concentration (IC50) on Human AhR came to 3.48 nM; at Mouse AhR it was 4 nM.

`C[C@@H](CO)NC(=O)c1cc(-c2ccc(Cl)cc2)nc(-c2cncnc2)n1` [Example 75, 6-(4-chlorophenyl)-N-[(2S)-1-hydroxypropan-2-yl][2,5′-bipyrimidine]-4-carboxamide]: the IC50 is 6.37 nM on Human AhR and 21.2 nM at Mouse AhR.

Turning to `CC(C)(O)CNC(=O)c1cc(-c2ccc(Cl)cc2)nc(-c2cnn(C3CC3)c2)n1` [Example 68, 6-(4-chlorophenyl)-2-(1-cyclopropyl-1H-pyrazol-4-yl)-N-(2-hydroxy-2-methylpropyl)pyrimidine-4-carboxamide], the half-maximal inhibitory concentration (IC50) stood at 7240 nM on Human AhR and 9830 nM on Mouse AhR.

For `C[C@@H](CO)NC(=O)c1cc(-c2ccc(C(F)(F)F)cc2)nc(-c2cccnc2)n1` [Example 117, N-[(2S)-1-hydroxypropan-2-yl]-2-(pyridin-3-yl)-6-[4-(trifluoromethyl)phenyl]pyrimidine-4-carboxamide], the values for the concentration for half-maximal inhibition (IC50) at Human AhR and against Mouse AhR were 1.26 nM and 1.33 nM, respectively.

For `Cn1cc(-c2nc(C(=O)NCC(C)(C)O)cc(-c3ccc(Cl)cc3)n2)cn1` [Example 13, 6-(4-chlorophenyl)-N-(2-hydroxy-2-methylpropyl)-2-(1-methyl-1H-pyrazol-4-yl)pyrimidine-4-carboxamide], the half-inhibitory concentration (IC50) against Human AhR was found to be 14.3 nM; at Mouse AhR it was 58.1 nM.

In the case of `Cn1nccc1-c1nc(C(=O)NCC(C)(C)O)cc(-c2ccc(Cl)cc2)n1` [Example 54, 6-(4-chlorophenyl)-N-(2-hydroxy-2-methylpropyl)-2-(1-methyl-1H-pyrazol-5-yl)pyrimidine-4-carboxamide], the half-maximal inhibitory concentration (IC50) against Human AhR turned out to be 36.6 nM; against Mouse AhR it was 41.1 nM.

On to `Cc1nn(C)cc1-c1nc(C(=O)N[C@@H](C)CO)cc(-c2ccc(OC(F)(F)F)cc2)n1` [Example 43, 2-(1,3-dimethyl-1H-pyrazol-4-yl)-N-[(2S)-1-hydroxypropan-2-yl]-6-[4-(trifluoromethoxy)phenyl]pyrimidine-4-carboxamide], for which the IC50 on Human AhR was 25.2 nM; against Mouse AhR it was 271 nM.

With `C[C@@H](CO)NC(=O)c1cc(-c2ccc(OC(F)(F)F)cc2)nc(-c2cnn(C)c2)n1` [Example 5, N-[(2S)-1-hydroxypropan-2-yl]-2-(1-methyl-1H-pyrazol-4-yl)-6-[4-(trifluoromethoxy)phenyl]pyrimidine-4-carboxamide], the IC50 against Human AhR is 3.68 nM; against Mouse AhR, 2.92 nM.

As to `Cc1nn(C)cc1-c1nc(C(=O)N[C@@H](C)CO)cc(-c2ccc(Cl)cc2)n1` [Example 83, 6-(4-chlorophenyl)-2-(1,3-dimethyl-1H-pyrazol-4-yl)-N-[(2S)-1-hydroxypropan-2-yl]pyrimidine-4-carboxamide], the IC50 at Human AhR was found to be 54.2 nM; against Mouse AhR, 1510 nM.

With `CC(NC(=O)c1cc(-c2ccc(OC(F)(F)F)cc2)nc(-c2cnn(C)c2)n1)C(O)CO` (centres unmarked) [Example 104, N-(3,4-dihydroxybutan-2-yl)-2-(1-methyl-1H-pyrazol-4-yl)-6-[4-(trifluoromethoxy)phenyl]pyrimidine-4-carboxamide], the values for the IC50 on Human AhR and against Mouse AhR were 12.5 nM and 20.4 nM, respectively.

On to `C[C@H](NC(=O)c1cc(-c2ccc(OC(F)(F)F)cc2)nc(-c2cnn(C)c2)n1)C(C)(C)O` [Example 102, N-[(2S)-3-hydroxy-3-methylbutan-2-yl]-2-(1-methyl-1H-pyrazol-4-yl)-6-[4-(trifluoromethoxy)phenyl]pyrimidine-4-carboxamide], for which the IC50 amounted to 6.86 nM against Human AhR and 3.26 nM on Mouse AhR.

Take `Cn1cc(-c2nc(C(=O)NC(CO)(CO)C(F)(F)F)cc(-c3ccc(OC(F)(F)F)cc3)n2)cn1` [Example 89, 2-(1-methyl-1H-pyrazol-4-yl)-N-[1,1,1-trifluoro-3-hydroxy-2-(hydroxymethyl)propan-2-yl]-6-[4-(trifluoromethoxy)phenyl]pyrimidine-4-carboxamide]: the IC50 at Human AhR came out at 7.95 nM; at Mouse AhR, 4.34 nM.

In the case of `Cn1cc(-c2nc(C(=O)NC(CO)Cc3cccnc3)cc(-c3ccc(OC(F)(F)F)cc3)n2)cn1` (centres unmarked) [Example 93, N-[1-hydroxy-3-(pyridin-3-yl)propan-2-yl]-2-(1-methyl-1H-pyrazol-4-yl)-6-[4-(trifluoromethoxy)phenyl]pyrimidine-4-carboxamide], the IC50 against Human AhR worked out at 34.1 nM; on Mouse AhR, 16.5 nM.

As for `C[C@@H](CO)NC(=O)c1cc(-c2ccc(Cl)cc2)nc(-c2ccnn2C)n1` [Example 74, 6-(4-chlorophenyl)-N-[(2S)-1-hydroxypropan-2-yl]-2-(1-methyl-1H-pyrazol-5-yl)pyrimidine-4-carboxamide], the 50% inhibitory concentration (IC50) is 33.6 nM at Human AhR and 62.9 nM on Mouse AhR.
